Laboratory results from patent US8778919B2, “Cyclic anilino—pyridinotriazines” (Janssen Pharmaceutica NV, priority 2005, dated 2014).

Experiments:
Format in all cases: biochemical
CDK5/p35 human = CDK5/p35 human (Homo sapiens, UniProt Q00535); assay: Kinase profiling C3.6 CDK5/p35 human; conditions: CDK5/p35, test concentration of 10^−6 M
Procedure, shortened: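 Radiometric filter-binding assay: human CDK5/p35 (5-10 mU) with 0.1 mg/ml histone H1 substrate in 8 mM MOPS pH 7.0, 0.2 mM EDTA, 10 mM Mg acetate and [γ-33P]ATP. Incubated 40 min at room temperature, stopped with phosphoric acid. Substrate 33P incorporation counted on P30 filtermat by scintillation.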

CDK7/cyclinH/MAT1 (h) = CDK7/cyclinH/MAT1 (h) (Homo sapiens, UniProt P50613); assay: Kinase profiling C3.8 CDK7/cyclinH/MAT1 human; conditions: CDK7/cyclinH/MAT1, test concentration of 10^−6 M
Procedure, shortened: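 Human CDK7/cyclinH/MAT1 (5-10 mU) incubated 40 min at room temperature in 8 mM MOPS pH 7.0, 0.2 mM EDTA, 10 mM Mg acetate, 500 μM peptide substrate and [γ-^33P]ATP. Stopped with phosphoric acid; substrate phosphorylation measured by filter binding and scintillation counting.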

CDK1/cyclinB (h) = CDK1/cyclinB (h) (Homo sapiens, UniProt P06493); assay: Kinase profiling C3.2 CDK1/cyclinB human; conditions: test concentration of 10^−6 M
Procedure, shortened: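 Radiometric filter-binding assay: human CDK1/cyclinB (5-10 mU) with 0.1 mg/ml histone H1 substrate and [γ-33P]ATP in 8 mM MOPS pH 7.0, 10 mM Mg acetate, 40 min at room temperature. Stopped with phosphoric acid; substrate-bound 33P counted on P30 filtermat by scintillation.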

CDK3/cyclinE (h) = CDK3/cyclinE (h) (Homo sapiens, UniProt Q00526); assay: Kinase profiling C3.5 CDK3/cyclinE human; conditions: test concentration of 10^−6 M
Procedure, shortened: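 Human CDK3/cyclinE (5-10 mU) phosphorylated 0.1 mg/ml histone H1 in 8 mM MOPS pH 7.0, 0.2 mM EDTA and 10 mM MgAcetate with [γ-33P]ATP. Reaction ran 40 min at room temperature and was stopped with phosphoric acid. Substrate-bound radioactivity was captured on P30 filtermat and measured by scintillation counting.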

GSK-3α = GSK-3α (Homo sapiens, UniProt P49840); assay: GSK-3 kinase assay (C1), GSK-3α; conditions: 1 μM ATP, read-out: C1 Score α
Procedure, shortened: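 Radiometric SPA at room temperature in 25 mM Tris pH 7.4 with 10 mM MgCl2, 1 mM DTT, 5.7 ng/μl GSK-3β or 0.25 ng/μl GSK-3α, 5 μM biotinylated CREB peptide and 1 μM ATP plus ^33P-ATP. Stopped after 1 h; IC50 from dose-response versus no-compound control, reported as pIC50 score bands.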

CDK2/cyclinE (h) = CDK2/cyclinE (h) (Homo sapiens, UniProt P24941); assay: Kinase profiling C3.4 CDK2/cyclinE human; conditions: test concentration of 10^−6 M
Procedure, shortened: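 Radiometric filter-binding assay: 5-10 mU enzyme with 0.1 mg/ml histone H1 in 8 mM MOPS pH 7.0, 0.2 mM EDTA, 10 mM Mg acetate and [γ-33P]ATP. Incubated 40 min at room temperature, stopped with phosphoric acid. Substrate-bound 33P counted on P30 filtermat.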

CDK7/cyclinH/MAT1 (h), sequence (P50613 whole entry): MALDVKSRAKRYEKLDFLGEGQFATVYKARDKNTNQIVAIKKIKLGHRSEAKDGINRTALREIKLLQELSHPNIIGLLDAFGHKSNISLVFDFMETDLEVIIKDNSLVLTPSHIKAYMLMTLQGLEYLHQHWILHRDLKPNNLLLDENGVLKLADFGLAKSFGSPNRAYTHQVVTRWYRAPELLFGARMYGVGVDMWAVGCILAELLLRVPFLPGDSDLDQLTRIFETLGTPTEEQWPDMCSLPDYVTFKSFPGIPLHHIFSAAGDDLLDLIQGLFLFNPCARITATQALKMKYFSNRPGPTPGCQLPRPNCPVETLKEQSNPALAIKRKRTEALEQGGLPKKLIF
CDK7/cyclinH/MAT1 (h), sequence (P51946 whole entry partner): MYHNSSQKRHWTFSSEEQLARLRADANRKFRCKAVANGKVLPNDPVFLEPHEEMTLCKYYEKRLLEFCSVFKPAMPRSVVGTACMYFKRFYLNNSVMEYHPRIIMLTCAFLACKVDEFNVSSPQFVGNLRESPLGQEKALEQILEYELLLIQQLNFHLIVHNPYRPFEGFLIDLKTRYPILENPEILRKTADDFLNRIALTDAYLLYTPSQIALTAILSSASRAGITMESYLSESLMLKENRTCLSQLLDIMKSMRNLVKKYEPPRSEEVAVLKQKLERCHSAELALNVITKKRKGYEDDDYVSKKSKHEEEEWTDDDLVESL
CDK7/cyclinH/MAT1 (h), sequence (P51948 whole entry partner): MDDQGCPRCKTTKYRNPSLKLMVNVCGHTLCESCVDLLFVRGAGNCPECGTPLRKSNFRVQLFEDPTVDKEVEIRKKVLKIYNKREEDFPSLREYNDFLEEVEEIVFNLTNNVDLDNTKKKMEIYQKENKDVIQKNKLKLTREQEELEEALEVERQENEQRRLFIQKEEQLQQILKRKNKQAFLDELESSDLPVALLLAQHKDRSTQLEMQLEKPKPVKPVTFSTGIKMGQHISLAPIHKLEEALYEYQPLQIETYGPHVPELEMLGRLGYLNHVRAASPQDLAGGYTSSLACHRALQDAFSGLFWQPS
GSK-3α, sequence (P49840 whole entry, species assumed): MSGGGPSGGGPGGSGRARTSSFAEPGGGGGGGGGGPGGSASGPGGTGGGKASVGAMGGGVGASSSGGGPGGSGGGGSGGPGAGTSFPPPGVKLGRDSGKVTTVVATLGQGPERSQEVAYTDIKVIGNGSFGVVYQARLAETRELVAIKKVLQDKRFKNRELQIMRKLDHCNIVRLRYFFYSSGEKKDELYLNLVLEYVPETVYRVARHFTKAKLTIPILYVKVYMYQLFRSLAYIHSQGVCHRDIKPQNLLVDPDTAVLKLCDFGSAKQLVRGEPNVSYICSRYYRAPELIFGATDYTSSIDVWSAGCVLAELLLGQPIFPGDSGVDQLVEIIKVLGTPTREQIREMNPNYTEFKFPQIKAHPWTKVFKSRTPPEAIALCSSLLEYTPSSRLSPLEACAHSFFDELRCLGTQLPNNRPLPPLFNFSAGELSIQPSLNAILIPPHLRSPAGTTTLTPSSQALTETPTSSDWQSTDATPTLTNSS
CDK5/p35 human, sequence (Q00535 whole entry): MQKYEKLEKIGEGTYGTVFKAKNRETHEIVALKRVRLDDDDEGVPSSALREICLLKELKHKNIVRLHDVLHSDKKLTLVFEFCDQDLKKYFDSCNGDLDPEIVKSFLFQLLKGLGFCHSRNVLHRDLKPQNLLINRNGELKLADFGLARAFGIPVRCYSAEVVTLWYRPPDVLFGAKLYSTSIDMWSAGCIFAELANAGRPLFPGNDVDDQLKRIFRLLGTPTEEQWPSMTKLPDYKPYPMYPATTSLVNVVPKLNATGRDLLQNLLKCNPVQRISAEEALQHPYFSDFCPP
CDK5/p35 human, sequence (Q15078 whole entry partner): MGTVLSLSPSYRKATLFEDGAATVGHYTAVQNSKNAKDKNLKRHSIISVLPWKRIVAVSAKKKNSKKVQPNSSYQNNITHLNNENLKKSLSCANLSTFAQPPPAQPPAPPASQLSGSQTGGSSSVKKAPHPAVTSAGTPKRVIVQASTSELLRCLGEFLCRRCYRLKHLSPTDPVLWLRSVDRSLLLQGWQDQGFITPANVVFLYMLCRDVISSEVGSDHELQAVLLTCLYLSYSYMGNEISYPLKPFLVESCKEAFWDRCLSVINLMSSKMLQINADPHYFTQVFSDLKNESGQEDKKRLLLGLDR
CDK1/cyclinB (h), sequence (P06493 whole entry): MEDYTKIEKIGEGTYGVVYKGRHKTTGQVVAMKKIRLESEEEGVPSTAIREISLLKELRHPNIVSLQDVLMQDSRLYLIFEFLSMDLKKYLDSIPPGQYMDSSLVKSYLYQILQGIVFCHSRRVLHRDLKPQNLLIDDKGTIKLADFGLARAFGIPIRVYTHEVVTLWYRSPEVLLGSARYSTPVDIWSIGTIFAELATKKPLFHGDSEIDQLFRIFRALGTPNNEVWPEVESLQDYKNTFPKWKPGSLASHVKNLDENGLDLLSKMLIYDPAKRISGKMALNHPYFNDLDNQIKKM
CDK1/cyclinB (h), sequence (P14635 whole entry partner): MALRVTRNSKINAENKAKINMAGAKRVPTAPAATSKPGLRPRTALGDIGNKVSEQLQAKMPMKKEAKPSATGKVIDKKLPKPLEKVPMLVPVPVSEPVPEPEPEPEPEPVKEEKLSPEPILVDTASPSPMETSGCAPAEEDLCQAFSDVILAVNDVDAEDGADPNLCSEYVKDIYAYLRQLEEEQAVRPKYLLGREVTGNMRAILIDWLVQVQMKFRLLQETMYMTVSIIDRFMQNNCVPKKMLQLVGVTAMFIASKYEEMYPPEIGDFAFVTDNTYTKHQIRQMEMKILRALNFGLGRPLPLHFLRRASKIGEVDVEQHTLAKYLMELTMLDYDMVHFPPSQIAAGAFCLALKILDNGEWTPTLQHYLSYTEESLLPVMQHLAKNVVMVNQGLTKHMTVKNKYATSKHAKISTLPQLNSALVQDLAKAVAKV

C3.6 score (CDK5/p35 human)	C3.8 score (CDK7/cyclinH/MAT1 (h))	C3.2 score (CDK1/cyclinB (h))	C3.5 score (CDK3/cyclinE (h))	IC50 (GSK-3α)	C3.4 score (CDK2/cyclinE (h))	Structure (SMILES)
1 (Score 1 = 10-30% inhibition)	2 (Score 2 = 30-60% inhibition)	1 (Score 1 = 10-30% inhibition)	1 (Score 1 = 10-30% inhibition)	10 to 100 nM	2 (Score 2 = 30-60% inhibition)	O=C1NCCCc2cc(ccn2)-c2ncnc(n2)Nc2cccc(c2)CN2CCCC1C2 (stereo not drawn) [Compound 15]
2 (Score 2 = 30-60% inhibition)	3 (Score 3 = 60-80% inhibition)	3 (Score 3 = 60-80% inhibition)	3 (Score 3 = 60-80% inhibition)	100 to 1000 nM	4 (Score 4 = >80% inhibition)	O=C1NCCCc2cc(ccn2)-c2ncnc(n2)Nc2cccc(c2)CN2CCCC12 (stereo not drawn) [Compound 12]
